The values below come from patent US12178867B2, “MHC class i associated peptides for prevention and treatment of multiple flavi virus” (priority 2018, dated 2024).

One experiment concerns peptide loaded T2 cells. In words: CTL assay: peptide-stimulated PBMCs of naive HLA-A2+ donor co-cultured with peptide loaded T2 cells, flow cytometry (FIG. 3A). Format: cell-based, human. The protocol:
FIGS. 3A and 3B: (FIG. 3A) Utilizing a healthy (naive) human HLA-A2+ donor, peripheral blood mononuclear cells (PBMCs) were stimulated with peptide epitopes in a cytokine cocktail to induce antigen specific CTL response. These stimulated PBMCs were then assayed by co-culturing peptide loaded targets for antigen specific response. TAP-deficient cells (T2) were used for peptide loading, and blank T2 cells used as control. Expanded PBMCs were assayed for both CD107a degranulation and interferon gamma (IFN-g) markers by flow cytometry. All 6 peptide epitopes induced CD8+ CD107a and IFNg expression to peptide loaded T2 cells in a peptide specific manner. […] (FIG. 3B) Utilizing a healthy (naive) human HLA-A2+ donor, peripheral blood mononuclear cells (PBMCs) were stimulated with peptide epitopes in a cytokine cocktail to induce antigen specific CTL response. These stimulated PBMCs were then assayed by co-culturing with Hep2G infected cells (DV2/Zika). Uninfected HepG2 cells were used as control. Expanded PBMCs were assayed for both CD107a degranulation and interferon gamma (IFN-g) markers by flow cytometry.
In one experiment, utilizing a healthy (naive) human HLA-A2+ donor, peripheral blood mononuclear cells (PBMCs) were stimulated with peptide epitopes in a cytokine cocktail to induce antigen specific CTL response. […]
For orientation: Flow cytometry measures light scatter and fluorescence of single cells or particles in a stream.

The test system of experiment [1] is peptide loaded HepG2 cells. In words: CTL assay: peptide-stimulated PBMCs of naive HLA-A24+ donor co-cultured with peptide loaded HepG2 cells, flow cytometry (FIG. 4). The following applies: blank HepG2 cells as control. Format: cell-based, human. The protocol: FIG. 4: Utilizing a healthy (naive) human HLA-A24+ donor, peripheral blood mononuclear cells (PBMCs) were stimulated with peptide epitopes in a cytokine cocktail to induce antigen specific CTL response. These stimulated PBMCs were then assayed by co-culturing peptide loaded targets for antigen specific response. Hep2G cells were used for peptide loading, and blank Hep2G cells used as control. Also used was HepG2 cells infected with Dengue (DV2) and Zika. Expanded PBMCs were assayed for both CD8/IFNg double expression by flow cytometry. All 4 peptide epitopes induced CD8+ IFNg expression to peptide loaded HepG2 cells in a peptide specific manner. […] FIG. 5: Transgenic A2 mice were immunized with 200 ng of NP-Dengue peptides. The spleen cells were isolated and then exposed to either Zika or Dengue infected cells. […] Acid stripping of the peptides makes the cells non-response.
In a further experiment, utilizing a healthy (naive) human HLA-A24+ donor, peripheral blood mononuclear cells (PBMCs) were stimulated with peptide epitopes in a cytokine cocktail to induce antigen specific CTL response. These stimulated PBMCs were then assayed by co-culturing peptide loaded targets for antigen specific response (FIG. 4). Hep2G cells were used for peptide loading, and blank Hep2G cells used as control. Also used was HepG2 cells infected with Dengue (DV2) and Zika. […]

“PMAAVGLLIVS (listed as Dengue virus) [SEQ ID NO: 2]”: the “IFNg+ effect” value in the experiment with peptide loaded T2 cells was “particular pronounced IFNg+ effect”. Also, the “CD8+ IFNg expression to peptide loaded HepG2 cells” value in experiment [1] is “particular pronounced IFNg+ effect”.
